# Test results published in patent publication EP1067939B1, “USE OF STEROIDAL ALKALOID DERIVATIVES AS INHIBITORS OF HEDGEHOG PROTEIN SIGNALING PATHWAYS” (The Johns Hopkins University, priority 1998, dated 1999).
# Where two headings read alike, the source gives them in different places.
# Columns and labels:
# [1] = system: BMP7; experiment: Neural plate explant response to BMP7 (migratory HNK-1 positive cells); type: cell-based, chick; conditions: 100 ng/ml BMP7, ventral neural plate explants
# [2] = system: endogenous Shh signaling; experiment: Midline neural plate/notochord explant assay of endogenous Shh signaling; type: cell-based, chick
# [3] = system: rat hepatoma cells; experiment: Cholesterol Esterification Assay (esterification of plasma membrane cholesterol); type: cell-based
# From the text: Table 1. […] Table 1. Effects of synthetic and plant-derived compounds on cholesterol homeostasis. […]
# [4] = system: Ptc -/- MEFs; experiment: β-galactosidase activity in ptc-lacZ mouse embryonic fibroblasts; type: cell-based; conditions: Ptc -/- MEFs 21-4, 16 hours (Figure 15)
# From the text: These studies involve the use of mouse embryonic fibroblasts (MEFs) that were generated by trypsin digestion of E8.5 embryos from patched (ptc) +/- matings.
# The MEF line 23-4 is heterozygous for ptc-lacZ, and thus contains one functional ptc allele capable of maintaining a repressed state of the pathway, but will express lacZ when the pathway is activated by addition of Shh protein (see Figure 12).
# [5] = system: Shh-N; experiment: Intermediate neural plate explant response to exogenous Shh-N protein; type: cell-based, chick
# [6] = system: chick embryos; conditions: in ovo, highest concentrations tested, 50µM
# From the text: • 1. M. Hammerschmidt, A. Brook, A. P. McMahon, Trends Genet, 13, 14-21 (1997). • 2. C. Chiang, et al., Nature, 383,407-413 (1996). • 3. Y. Tanabe, T. M. Jessell, Science 274, 1115-1123 (1996). • 4. T. P. Yamaguchi, Curr. Opin. Genet. Dev. 7, 513-518 (1997). • 5. N. Shubin, C. Tabin, S. Carroll, Nature 388, 639-648 (1997). • 6. A. E. Oro, et al., Science 276, 817-821 (1997). • 7. M. M. Cohen, K. K. Sulik, J. Craniofac. Genet. Deve. Biol. 12, 196-244 (1992). • 8. E. Belloni, et al., Nature Genet. 14, 353-356 (1996). • 9. E. Roessler, et al., Nature Genet. 14, 357-360 (1996). • 10. J. A. Porter, et al., Nature 374, 363-366 (1995). • 11. J. A. Porter, K. E. Young, P. A. Beacy, Science 274, 255-259 (1996b). • 12. J. J. Lee, et al., Science 266, 1528-1537 (1994). • 13. J. A. Porter, et al., Cell 86, 21-34 (1996a). • 14. C. Roux, Arch. Franc. Pediatr. 21, 451-464 (1964). • 15. C. Roux, C. R. Soc. Biol. 160, 1353-1357 (1966). • 16. D. B. Dehart, L. Lanoue, G. S. Tinit, K. K. Sulik, Am J. Med. Genet. 68, 328-337 (1997). • 17. M. Kraml, J. F. Bagli, D. Dvornik, Biochem. and Biophysical Res. Com. 15, 455-457 (1964). • 18. J. Avigan, D. Steinberg, H. E. Vroman, M. J. Thompson, E. Mosettig, J. Biol. Chem 235, 3123-3126 (1960). • 19. R. B. Clayton, A. N. Nelson, I. D. Frantz Jr., J. Lipid Res. 4, 166-178 (1963). • 20. J. Aufenanger, J. Pill, K. Stegmeier, F. H. Schmidt, Horm. Metabol. Res. 17, 612-613 (1986). • 21. […] G. Popjak, A. Meenean, E. J. Parish, W. D. Nes, J. Biol. Chem 264,6230-6238 (1989). • 23. H. Yoshikawa, Brain Deve. 13, 115-120 (1991). • 24. R. I. Kelley, et al., Am. J. Of Med. Gen. 66, 478-484 (1996). • 25. G. S. Tint, et al., New England Journal of Medicine 330, 107-113 (1994). • 26. T.E. Willnow, et al., Proc. Natl. Acad. Sci USA 93, 8460-8464 (1996). • 27. S. Stefansson, D. A. Chappell, K. M. Argraves, D. K. Strickland, W. S. Argraves, J. Biol. Chem. 270, 19417-19421 (1995). • 28. W. Binns, L. F. James, J. L. Shupe, G. Everett, Am. J. Vet. Res. 24, 1164-1174 (1963). • 29. R. F. Keeler, W. Binns, Teratology 1, 5-10 (1968). • 30. P. A. Beachy, et al., CSH Symp. Quant. Biol. 62, in press (1997). • 31. […]
# [7] = read-out: Percent Inhibition (incorporation of label into cholesteryl ester*) ^3H-Cholesterol
# [8] = read-out: Percent Inhibition (incorporation of label into cholesteryl ester*) ^14C-Oleic Acid
smiles,measurement,setting,value
"C[C@H]1CC[C@]2(NC1)O[C@H]1C[C@H]3[C@@H]4CC[C@H]5C[C@@H](O)CC[C@]5(C)[C@H]4CC[C@]3(C)[C@H]1[C@@H]2C [Tomatidine, tomatidine]",Induction of migratory HNK-1 positive cells by BMP7,[1]; 50 µM,not inhibited
same,expression of HNF3β and Isl-1,"[2]; midline explants, 50 µM (Fig. 3C)",unable to block expression of HNF3β and Isl-1
same,inhibition at 2.5 µM,"[3]; 2.5 µM, read-out: Percent Inhibition (incorporation of label into cholesteryl ester*) ^3H-Cholesterol",31%
same,inhibition at 2.5 µM,"[3]; 2.5 µM, read-out: Percent Inhibition (incorporation of label into cholesteryl ester*) ^14C-Oleic Acid",30%
same,inhibition at 5 µM,"[3]; 5.0 µM, read-out: Percent Inhibition (incorporation of label into cholesteryl ester*) ^3H-Cholesterol",33%
same,inhibition at 5 µM,"[3]; 5.0 µM, read-out: Percent Inhibition (incorporation of label into cholesteryl ester*) ^14C-Oleic Acid",64%
same,inhibition at 10 µM,"[3]; 10 µM, read-out: Percent Inhibition (incorporation of label into cholesteryl ester*) ^3H-Cholesterol",39%
same,inhibition at 10 µM,"[3]; 10 µM, read-out: Percent Inhibition (incorporation of label into cholesteryl ester*) ^14C-Oleic Acid",52%
same,reduction of β-galactosidase activity,[4],cannot he achieved
same,concentrations producing partial inhibition relative to those required for complete inhibition by jervine and cyclopamine,[5],100200 fold
same,concentration that inhibits the repression of Pax7 expression by 2 nM Shh-N,"[5]; 2 nM Shh-N, 20 hours",> 50 µM
same,effect on HNF3β and Isl-1 induction,"[5]; 50 µM, 25 nM Shh-N",markedly reduces HNF3β induction and enhances Isl1-1 induction
same,effect on HNF3β and Isl-1 expression,"[5]; Tomatidine at 25 nM (so in the source), 25 nM Shh-N",slight inhibitory effect
"CC1=C2C[C@H]3[C@@H](CC=C4C[C@@H](O)CC[C@@]43C)[C@@H]2CC[C@]12O[C@@H]1C[C@H](C)CN[C@H]1[C@H]2C [Cyclopamine, cyclopamine]",Induction of migratory HNK-1 positive cells by BMP7,[1]; 10 µM,not inhibited
same,Higher doses that fully inhibit HNF3β and Isl-1 induction,[2],1.0 µM
same,Intermediate doses that block induction of HNF3β while permitting induction of Isl-1,[2],0.25 µM
same,embryos displayed normal morphology,[6],2/10
same,inhibition at 2.5 µM,[3]; [7],48%
same,inhibition at 5 µM,[3]; [7],67%
same,inhibition at 10 µM,[3]; [7],79%
same,inhibition at 2.5 µM,[3]; [8],45%
same,inhibition at 5 µM,[3]; [8],62%
same,inhibition at 10 µM,[3]; [8],74%
same,concentration that inhibits the repression of Pax7 expression by 2 nM Shh-N,[5],0.0625 µM
same,doses at which HNF3β and Isl-1 induction are completely blocked,[5],0.25 µM
same,intermediate levels at which induction of HNF3β is blocked while induction of Isl-1 is maintained or expanded,[5],0.125 µM
